This note sets out measurements from ChEMBL document CHEMBL1201862, “PubChem BioAssay data set” (2004).

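Each compound was tested at five concentrations against cells in 96-well plates for 48 hours. Abbreviation: GI50, concentration required for 50% inhibition of growth.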 The source made the active and inactive calls. Cut-off read from the data, not from the text of the source: active = GI50 up to about 1.1 µM and inactive = higher.

Some test systems named below: IGROV-1; MDA-N; DU-145; CCRF-CEM; HL-60; SNB-75; 786-0; OVCAR-8; NCI-H226; EKVX; UO-31; SK-MEL-28; SN12C; SF-268; SR; SF-539; HCC 2998; U-251; MDA-MB-231.
Common to all, as to assay: DTP human tumour cell line panel, 48 h

In the case of `C=C1C2CC3CCC2C(OC(=O)c2ccccc2C(=O)O)C13` (stereo not given), the GI50 in the experiment with IGROV-1 was > 100 µM (inactive); in the experiment with MDA-N, > 100 µM (inactive); in the experiment on DU-145, > 100 µM (inactive); in the experiment with CCRF-CEM, > 100 µM (inactive); in the experiment on HL-60, > 100 µM (inactive); in the experiment with SNB-75 it was 3.1 µM (inactive). Moreover, the GI50 in the experiment on 786-0, with OVCAR-8, in the experiment on NCI-H226, in the experiment on EKVX, in the experiment on UO-31 and in the experiment with SK-MEL-28 was > 100 µM (inactive) in each case. Also, the GI50 in the experiment on SN12C, with SF-268, with SR, with SF-539, in the experiment with HCC 2998 and with U-251 was > 100 µM (inactive) throughout. The GI50 in the experiment with MDA-MB-231 was > 100 µM (inactive).
With `Cc1cc(O)c2c(c1)C(C1c3cccc(O)c3C(=O)c3c(O)cc(C)cc31)c1cccc(O)c1C2=O` (stereo not given), the GI50 is 0.378 µM (active) with IGROV-1; 0.705 µM (active) in the experiment on MDA-N; 0.4 µM (active) in the experiment on DU-145; 0.906 µM (active) in the experiment on CCRF-CEM; 0.879 µM (active) with HL-60; 0.243 µM (active) with SNB-75. Moreover, the GI50 with 786-0 was 0.466 µM (active); in the experiment with OVCAR-8 it was 0.335 µM (active); in the experiment with NCI-H226, 0.605 µM (active); in the experiment on EKVX, 0.417 µM (active); in the experiment with UO-31, 0.306 µM (active); with SK-MEL-28, 0.394 µM (active). For the same molecule, the GI50 is 0.322 µM (active) in the experiment with SN12C; 0.311 µM (active) with SF-268; 0.345 µM (active) in the experiment on SR; 0.21 µM (active) in the experiment with SF-539; 1.1 µM (active) in the experiment with HCC 2998; 0.31 µM (active) in the experiment on U-251. For the same molecule, the GI50 in the experiment on MDA-MB-231 is 0.405 µM (active).
On to `O=C1CSC(/C=C/c2ccccc2)N1c1ccc(-n2c(-c3ccccc3)nc3ccccc3c2=O)cc1` (stereo not given), for which the GI50 in the experiment with IGROV-1 was 74.3 µM (inactive); in the experiment with MDA-N it was > 100 µM (inactive); in the experiment with DU-145, > 100 µM (inactive); with CCRF-CEM, 66.1 µM (inactive); in the experiment with HL-60, > 100 µM (inactive); with SNB-75, 22.6 µM (inactive). In addition, the GI50 is > 100 µM (inactive) with 786-0; > 100 µM (inactive) in the experiment on OVCAR-8; 48.8 µM (inactive) in the experiment with NCI-H226; > 100 µM (inactive) in the experiment with EKVX; 16.8 µM (inactive) in the experiment with UO-31; > 100 µM (inactive) in the experiment on SK-MEL-28. Moreover, the GI50 in the experiment with SN12C is > 100 µM (inactive); in the experiment on SF-268, 95.5 µM (inactive); in the experiment with SR, 37.1 µM (inactive); in the experiment on SF-539, 71.4 µM (inactive); in the experiment with HCC 2998, 99.5 µM (inactive); in the experiment on U-251 it was > 100 µM (inactive). For the same molecule, in the experiment with MDA-MB-231, the GI50 was > 100 µM (inactive).
Take `O=c1[nH]nc(Cc2ccccc2)n1/N=C/c1c[nH]c2ccccc12`: the GI50 was > 100 µM (inactive) in the experiment on IGROV-1; 29.8 µM (inactive) in the experiment on MDA-N; > 100 µM (inactive) in the experiment on DU-145; > 100 µM (inactive) in the experiment with CCRF-CEM; > 100 µM (inactive) in the experiment with HL-60; 13.3 µM (inactive) in the experiment on SNB-75. Besides, the GI50 in the experiment on 786-0 was 43 µM (inactive); in the experiment with OVCAR-8, > 100 µM (inactive); with NCI-H226, > 100 µM (inactive); in the experiment with EKVX, 95.1 µM (inactive); in the experiment with UO-31, > 100 µM (inactive); in the experiment with SK-MEL-28, > 100 µM (inactive). Also, the GI50 is > 100 µM (inactive) in the experiment on SN12C; 21.9 µM (inactive) with SF-268; > 100 µM (inactive) in the experiment on SR; > 100 µM (inactive) with SF-539; > 100 µM (inactive) with HCC 2998; 52.1 µM (inactive) in the experiment on U-251. In the experiment on MDA-MB-231, the GI50 is 59 µM (inactive).
As for `CCOC(=O)c1cc(C#N)[nH]c1-c1ccsc1`, the GI50 in the experiment with IGROV-1 was 40.4 µM (inactive); in the experiment on MDA-N, 33.9 µM (inactive); with DU-145 it was 24.3 µM (inactive); in the experiment on CCRF-CEM, 21.5 µM (inactive); in the experiment with HL-60, 16.4 µM (inactive); in the experiment on SNB-75 it was 22.5 µM (inactive). The GI50 is 44 µM (inactive) in the experiment with 786-0; 36.6 µM (inactive) with OVCAR-8; 44.3 µM (inactive) in the experiment on NCI-H226; 17.6 µM (inactive) in the experiment on EKVX; 0.114 µM (active) with UO-31; 40.2 µM (inactive) in the experiment with SK-MEL-28. The GI50 in the experiment on SN12C was 54.7 µM (inactive); in the experiment with SF-268, 22.8 µM (inactive); with SR, 11.8 µM (inactive); in the experiment with SF-539, 28.6 µM (inactive); in the experiment on HCC 2998, 29.8 µM (inactive); in the experiment on U-251, 25.8 µM (inactive). Besides, the GI50 with MDA-MB-231 is 41.6 µM (inactive).
In the case of `CC(=O)O[C@H]1C(=O)[C@@]2(C)[C@H]([C@H](OC(=O)c3ccccc3)[C@]3(O)C[C@H](OC(=O)[C@H](O)[C@@H](NC(=O)c4ccccc4)c4cccc(N(C)C)c4)C(C)=C1C3(C)C)[C@]1(OC(C)=O)CO[C@@H]1C[C@@H]2O`, the GI50 is 0.0537 µM (active) in the experiment with IGROV-1; 0.00766 µM (active) with MDA-N; 0.302 µM (active) with DU-145; 0.0215 µM (active) in the experiment on CCRF-CEM; 0.0122 µM (active) in the experiment on HL-60; 1.01 µM (active) in the experiment on SNB-75. For the same molecule, the GI50 was 0.389 µM (active) in the experiment on 786-0; 0.155 µM (active) in the experiment on OVCAR-8; 0.665 µM (active) with NCI-H226; > 32.1 µM (inactive) with EKVX; 1.96 µM (inactive) in the experiment on UO-31; 0.575 µM (active) in the experiment on SK-MEL-28. In addition, the GI50 with SN12C was 0.041 µM (active); in the experiment with SF-268 it was 0.337 µM (active); in the experiment on SR it was 0.0322 µM (active); in the experiment with SF-539, 0.0668 µM (active); with HCC 2998 it was 0.0315 µM (active); in the experiment with U-251 it was 0.0608 µM (active). For the same molecule, the GI50 in the experiment with MDA-MB-231 is 0.542 µM (active).
Take `COc1ccc(Oc2cnn(C(Br)(Br)C(C)=O)c(=O)c2Br)cc1`: the GI50 in the experiment on IGROV-1 was 18.5 µM (inactive); in the experiment on MDA-N, 10.3 µM (inactive); in the experiment with DU-145 it was 19.2 µM (inactive); in the experiment with CCRF-CEM, 1.82 µM (inactive); in the experiment on HL-60, 1.97 µM (inactive); with SNB-75, 15 µM (inactive). The GI50 was 13.9 µM (inactive) in the experiment on 786-0; 13.3 µM (inactive) in the experiment on OVCAR-8; 21.4 µM (inactive) in the experiment with NCI-H226; 17.1 µM (inactive) in the experiment with EKVX; 7.66 µM (inactive) in the experiment on UO-31; 16 µM (inactive) in the experiment with SK-MEL-28. The GI50 in the experiment with SN12C is 15 µM (inactive); in the experiment on SF-268 it was 14.6 µM (inactive); with SR, 1.69 µM (inactive); in the experiment with SF-539 it was 12.4 µM (inactive); in the experiment with HCC 2998, 16.8 µM (inactive); in the experiment on U-251 it was 13.9 µM (inactive). Further, in the experiment with MDA-MB-231, the GI50 was 17.9 µM (inactive).
Regarding `CC1(C)OCC(C2OC(=O)C(OCc3ccccc3)=C2OCc2ccccc2)O1` (stereo not given), the GI50 in the experiment with IGROV-1 was 64.3 µM (inactive); in the experiment with MDA-N, 38 µM (inactive); in the experiment with DU-145, 81.1 µM (inactive); in the experiment on CCRF-CEM, 37.8 µM (inactive); in the experiment with HL-60 it was 22.9 µM (inactive); in the experiment on SNB-75, 49.9 µM (inactive). The GI50 with 786-0 is 45 µM (inactive); in the experiment on OVCAR-8 it was 50.4 µM (inactive); in the experiment with NCI-H226, 32.7 µM (inactive); in the experiment with EKVX, 37.6 µM (inactive); with UO-31, 37.1 µM (inactive); in the experiment with SK-MEL-28, 65.6 µM (inactive). Moreover, the GI50 in the experiment on SN12C is 39.4 µM (inactive); in the experiment on SF-268, 83.2 µM (inactive); in the experiment with SR, 28.4 µM (inactive); with SF-539, 72.6 µM (inactive); with HCC 2998, 36.8 µM (inactive); with U-251, 39.2 µM (inactive). The GI50 with MDA-MB-231 is 24.6 µM (inactive).
Consider `Nc1cc(F)ccc1CC(=O)O`, for which the GI50 in the experiment with IGROV-1, in the experiment on MDA-N, in the experiment with DU-145, in the experiment with CCRF-CEM, with HL-60 and with SNB-75 was > 100 µM (inactive) in each case. Moreover, the GI50 in the experiment on 786-0, with OVCAR-8, in the experiment with NCI-H226, in the experiment on EKVX, in the experiment on UO-31 and in the experiment on SK-MEL-28 was > 100 µM (inactive) throughout. The GI50 in the experiment on SN12C, with SF-268, with SR, in the experiment with SF-539, in the experiment with HCC 2998 and in the experiment on U-251 was > 100 µM (inactive) in each case. The GI50 in the experiment with MDA-MB-231 was > 100 µM (inactive).
Turning to `COc1ccc(OC)c(-c2cc(=O)c3c(OC)c(OC)c(OC)c(OC)c3o2)c1`, the GI50 is 29.9 µM (inactive) with IGROV-1; 35.9 µM (inactive) in the experiment on MDA-N; 25.8 µM (inactive) in the experiment with DU-145; 13.4 µM (inactive) in the experiment on CCRF-CEM; 14.2 µM (inactive) with HL-60; 46.8 µM (inactive) in the experiment with SNB-75. Further, the GI50 in the experiment on 786-0 is 27.4 µM (inactive); in the experiment on OVCAR-8, 25.7 µM (inactive); in the experiment on NCI-H226, 26.2 µM (inactive); with EKVX, 33 µM (inactive); in the experiment with UO-31 it was 15.4 µM (inactive); with SK-MEL-28, 40.1 µM (inactive). Further, the GI50 with SN12C was 27.9 µM (inactive); in the experiment with SF-268, 36 µM (inactive); in the experiment with SR, 6.17 µM (inactive); in the experiment with SF-539 it was 41.1 µM (inactive); in the experiment with HCC 2998, 28.6 µM (inactive); with U-251, 28.4 µM (inactive). Further, the GI50 with MDA-MB-231 is 40.2 µM (inactive).

The term GI50 denotes the concentration giving 50% growth inhibition.
